Results reported in US20200339625A1, “NOVEL RADIOMETAL-BINDING COMPOUNDS FOR DIAGNOSIS OR TREATMENT OF PROSTATE SPECIFIC MEMBRANE ANTIGEN-EXPRESSING CANCER” (PROVINCIAL HEALTH SERVICES AUTHORITY, priority 2017, published 2020).

How the values were obtained:
human serum = test: Plasma protein binding assay; assay type: in vitro ADME; settings: for filter-bound radioactivity: n=3
Method: 1.16 Plasma Protein Binding Assay
Plasma protein binding assays were performed according to literature methods.^19 Briefly, 37 kBq of ^177Lu-PSMA-617 or ^177Lu-HTK01169 in 50 μL PBS was added into 200 μL human serum and the mixture was incubated at room temperature for […]. The mixture was then loaded onto a membrane filter (Nanosep®, 30 K, Pall Corporation, USA) and centrifuged for 45 min (30,130×g). Saline (50 μL) was added and centrifugation was continued for another 15 min. The top part with the membrane filter and the bottom part with the solution were counted on a gamma counter. For control, saline was used in place of human serum.

[1] = test system: mice bearing LNCaP xenografts; test: Biodistribution of 177Lu-labeled compounds; assay type: in vivo
Method: 1.17 SPECT/CT Imaging, Biodistribution and Endoradiotherapy Studies
SPECT/CT imaging and biodistribution were performed using NOD-scid IL2Rgammanu^null (NSG) male mice, and the endoradiotherapy study was conducted using NOD.Cg-Rag1^tm1MomII2rg^tm1WjI/SzJ (NRG) male mice. The mice were maintained and the experiments were conducted in according to the guidelines established by the Canadian Council on Animal Care and approved by Animal Ethics Committee of the University of British Columbia. Mice were anesthetized by inhalation with 2% isoflurane in oxygen, and implanted subcutaneously with 1×10^7 LNCaP cells posterior to the left shoulder. Mice were used for studies when the tumor reached 5-8 mm in diameter 5-6 weeks after inoculation.
For biodistribution studies, the mice were injected with ^177Ludabeled PSMA-617 or HTK01169 (2-4 MBq) as described above. At predetermined time points (1, 4, 24, 72, or 120 h post-injection), the mice were euthanized by CO2 inhalation. Blood was withdrawn immediately from the heart, and the organs/tissues of interest were collected. The collected organs/tissues were weighed and counted using an automated gamma counter. For the blocking study, mice were co-injected with ^177Lu-HTK01169 (2-4 MBq) and 50 nmol of the non-radioactive standard, and organs/tissues of interest were collected at 4 h post-injection.

[2] = 4 h post-injection, blocking (co-injection of 50 nmol non-radioactive standard)

## O=C([O-])CN1CCN(CC(=O)[O-])CCN(CC(=O)NCCCC[C@H](NC(=O)[C@H](CCC(=O)O)NC(=O)CCCc2ccc(I)cc2)C(=O)NC[C@H]2CC[C@H](C(=O)N[C@@H](Cc3ccc4ccccc4c3)C(=O)NCCCC[C@H](NC(=O)N[C@@H](CCC(=O)O)C(=O)O)C(=O)O)CC2)CCN(CC(=O)[O-])CC1.[177Lu+3] [^177Lu-HTK01169]
Human serum; human serum
  free radioligand: < 1%
Human serum; incubated with human serum
  filter-bound radioactivity: 99.2±0.02%
Human serum; incubated with saline (control)
  filter-bound radioactivity: 25.8±3.42%
[1]; 1 h post-injection
  Adrenal glands uptake: 9.94 ± 2.10 % ID/g
  Blood uptake: 16.6 ± 1.85 % ID/g
  Bone uptake: 0.93 ± 0.31 % ID/g
  Brain uptake: 0.18 ± 0.07 % ID/g
  Fat uptake: 3.20 ± 1.03 % ID/g
  Heart uptake: 3.93 ± 0.95 % ID/g
  Intestine uptake: 1.64 ± 0.20 % ID/g
  Kidneys uptake: 51.1 ± 4.07 % ID/g
  Liver uptake: 2.55 ± 0.45 % ID/g
  Lung uptake: 7.11 ± 0.98 % ID/g
  Muscle uptake: 1.39 ± 0.12 % ID/g
  Pancreas uptake: 1.77 ± 0.24 % ID/g
  Seminal uptake: 1.02 ± 0.15 % ID/g
  Spleen uptake: 10.6 ± 4.07 % ID/g
  Stomach uptake: 0.50 ± 0.15 % ID/g
  Testes uptake: 2.14 ± 0.31 % ID/g
  Tumor uptake: 13.4 ± 3.26 % ID/g
  Tumor/blood ratio: 0.81 ± 0.18
  Tumor/kidney ratio: 0.26 ± 0.05
  Tumor/muscle ratio: 9.76 ± 2.65
[1]; 4 h post-injection
  Adrenal glands uptake: 9.91 ± 2.55 % ID/g
  Blood uptake: 10.2 ± 1.40 % ID/g
  Bone uptake: 0.79 ± 0.30 % ID/g
  Brain uptake: 0.16 ± 0.01 % ID/g
  Fat uptake: 2.95 ± 0.81 % ID/g
  Heart uptake: 2.50 ± 0.54 % ID/g
  Intestine uptake: 1.25 ± 0.17 % ID/g
  Kidneys uptake: 85.7 ± 7.11 % ID/g
  Liver uptake: 1.97 ± 0.05 % ID/g
  Lung uptake: 5.92 ± 0.22 % ID/g
  Muscle uptake: 0.98 ± 0.06 % ID/g
  Pancreas uptake: 1.51 ± 0.28 % ID/g
  Seminal uptake: 1.07 ± 0.62 % ID/g
  Spleen uptake: 8.05 ± 3.62 % ID/g
  Stomach uptake: 0.57 ± 0.11 % ID/g
  Testes uptake: 1.91 ± 0.63 % ID/g
  Tumor/blood ratio: 2.71 ± 0.68
  Tumor/kidney ratio: 0.32 ± 0.07
  Tumor/muscle ratio: 28.0 ± 6.92
[1]; [2]
  Adrenal glands uptake: 0.68 ± 0.24 % ID/g
  Blood uptake: 0.96 ± 0.25 % ID/g
  Bone uptake: 0.12 ± 0.04 % ID/g
  Brain uptake: 0.03 ± 0.00 % ID/g
  Fat uptake: 0.25 ± 0.13 % ID/g
  Heart uptake: 0.41 ± 0.07 % ID/g
  Intestine uptake: 0.25 ± 0.10 % ID/g
  Kidneys uptake: 5.50±1.95 % ID/g
  Liver uptake: 0.51 ± 0.08 % ID/g
  Lung uptake: 0.89 ± 0.29 % ID/g
  Muscle uptake: 0.12 ± 0.02 % ID/g
  Pancreas uptake: 0.19 ± 0.02 % ID/g
  Seminal uptake: 0.19 ± 0.13 % ID/g
  Spleen uptake: 0.61 ± 0.17 % ID/g
  Stomach uptake: 0.19 ± 0.10 % ID/g
  Testes uptake: 0.58 ± 0.14 % ID/g
  Tumor uptake: 1.70±0.28 % ID/g
  Tumor/blood ratio: 1.81 ± 0.31
  Tumor/kidney ratio: 0.32 ± 0.06
  Tumor/muscle ratio: 13.7 ± 1.47
[1]; 24 h post-injection
  Adrenal glands uptake: 4.53 ± 1.10 % ID/g
  Blood uptake: 2.10 ± 0.41 % ID/g
  Bone uptake: 0.26 ± 0.05 % ID/g
  Brain uptake: 0.06 ± 0.01 % ID/g
  Fat uptake: 2.06 ± 0.71 % ID/g
  Heart uptake: 0.83 ± 0.25 % ID/g
  Intestine uptake: 0.45 ± 0.13 % ID/g
  Kidneys uptake: 125 ± 16.4 % ID/g
  Liver uptake: 1.03 ± 0.22 % ID/g
  Lung uptake: 1.98 ± 0.44 % ID/g
  Muscle uptake: 0.39 ± 0.07 % ID/g
  Pancreas uptake: 0.59 ± 0.12 % ID/g
  Seminal uptake: 0.36 ± 0.13 % ID/g
  Spleen uptake: 3.70 ± 1.67 % ID/g
  Stomach uptake: 0.34 ± 0.12 % ID/g
  Testes uptake: 1.19 ± 0.23 % ID/g
  Tumor uptake: 55.9±12.5 % ID/g
  Tumor/blood ratio: 26.7 ± 2.79
  Tumor/kidney ratio: 0.45 ± 0.13
  Tumor/muscle ratio: 142 ± 14.4
[1]; 72 h post-injection
  Adrenal glands uptake: 1.65 ± 0.46 % ID/g
  Blood uptake: 0.28 ± 0.10 % ID/g
  Bone uptake: 0.11 ± 0.03 % ID/g
  Brain uptake: 0.03 ± 0.00 % ID/g
  Fat uptake: 1.34 ± 0.72 % ID/g
  Heart uptake: 0.28 ± 0.04 % ID/g
  Intestine uptake: 0.13 ± 0.06 % ID/g
  Kidneys uptake: 37.8 ± 18.7 % ID/g
  Liver uptake: 0.46 ± 0.12 % ID/g
  Lung uptake: 0.51 ± 0.17 % ID/g
  Muscle uptake: 0.11 ± 0.02 % ID/g
  Pancreas uptake: 0.15 ± 0.02 % ID/g
  Seminal uptake: 0.12 ± 0.04 % ID/g
  Spleen uptake: 1.13 ± 0.32 % ID/g
  Stomach uptake: 0.17 ± 0.12 % ID/g
  Testes uptake: 0.62 ± 0.11 % ID/g
  Tumor uptake: 53.6 ± 8.06 % ID/g
  Tumor/blood ratio: 204 ± 63.5
  Tumor/kidney ratio: 1.63 ± 0.58
  Tumor/muscle ratio: 519 ± 91.5
[1]; 120 h post-injection
  Adrenal glands uptake: 0.65 ± 0.21 % ID/g
  Blood uptake: 0.06 ± 0.03 % ID/g
  Bone uptake: 0.08 ± 0.01 % ID/g
  Brain uptake: 0.03 ± 0.00 % ID/g
  Fat uptake: 0.73 ± 0.13 % ID/g
  Heart uptake: 0.16 ± 0.07 % ID/g
  Intestine uptake: 0.10 ± 0.06 % ID/g
  Kidneys uptake: 8.63 ± 2.51 % ID/g
  Liver uptake: 0.34 ± 0.23 % ID/g
  Lung uptake: 0.17 ± 0.04 % ID/g
  Muscle uptake: 0.04 ± 0.01 % ID/g
  Pancreas uptake: 0.07 ± 0.02 % ID/g
  Seminal uptake: 0.08 ± 0.04 % ID/g
  Spleen uptake: 1.18 ± 0.55 % ID/g
  Stomach uptake: 0.21 ± 0.20 % ID/g
  Testes uptake: 0.40 ± 0.05 % ID/g
  Tumor uptake: 56.4±13.2 % ID/g
  Tumor/blood ratio: 1146 ± 722
  Tumor/kidney ratio: 7.12 ± 3.11
  Tumor/muscle ratio: 1708 ± 718
[1]; LNCaP tumor xenografts
  fold higher peak tumor uptake than 177Lu-PSMA-617: 3.7 fold
[1]; mouse, in vivo
  blood clearance (qualitative): relatively slower than ^177Lu-PSMA-617
[1]; peak over 1-120 h
  peaked tumor uptake: 55.9±12.5 % ID/g
